Laboratory results: publication PMC11197535, “Reprogramming of phytopathogen transcriptome by a non-bactericidal pesticide residue alleviates its virulence in rice” (Fundamental Research, 2022)

Target: T1, TroK (Burkholderia plantarii, UniProt A0A0B6RRK0)
T1 construct: gene BGL_1c34780
Assay: SPR (Biacore T200, multiple cycle kinetics)
Assay type: binding
Details: TroK immobilised on CM7 chip by amine coupling; 10 mM PBS, pH 7.4, 150 mM NaCl, DMSO; free ATT
Source text: SPR (Biacore T200, multiple cycle kinetics) on TroK | thiazole could directly bind to the purified TroK in the transmembrane region

T1 sequence (A0A0B6RRK0 entry or part of it): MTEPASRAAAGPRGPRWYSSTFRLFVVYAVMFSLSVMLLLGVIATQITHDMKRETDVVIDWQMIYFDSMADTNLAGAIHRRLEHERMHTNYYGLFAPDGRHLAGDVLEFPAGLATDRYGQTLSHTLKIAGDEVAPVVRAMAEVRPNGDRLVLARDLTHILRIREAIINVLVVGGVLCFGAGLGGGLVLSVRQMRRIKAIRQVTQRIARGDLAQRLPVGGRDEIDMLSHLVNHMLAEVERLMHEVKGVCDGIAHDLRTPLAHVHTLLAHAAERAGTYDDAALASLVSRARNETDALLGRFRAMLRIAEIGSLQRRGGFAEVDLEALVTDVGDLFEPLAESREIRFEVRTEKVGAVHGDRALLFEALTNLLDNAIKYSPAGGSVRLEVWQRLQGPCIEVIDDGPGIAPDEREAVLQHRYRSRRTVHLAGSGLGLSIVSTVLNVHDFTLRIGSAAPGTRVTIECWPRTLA

SMILES: Nc1nnc(S)s1 [ATT, 5-Amino-1,3,4-thiadiazole-2-thiol]
- Kd: 728 nM
